Experimental data reported in patent EP4640674A1, “CRYSTAL FORMS OF ETHOXIMOD, PREPARATION METHOD THEREFOR AND USE THEREOF” (Jiankuan (Suzhou) Biotechnology Co., Ltd, priority 2022, dated 2024).
Values joined by “and” are separate entries in the source; they are usually repeats but may differ in a detail not shown here. Equal values may be shown once. “Also recorded” adds a separate entry of the source.

What was measured:
Assay type in all cases: physicochemical
[1] = Solid-state stability on storage (crystal form by XRPD, purity); settings: for Crystal Form after storage / main purity after storage / maximum single impurity after storage: 30 days exposed
Experimental: Samples were taken before and after storage, and crystal forms were measured through XRPD. […] Table 3 Comparison of solid-state stability of crystal form A and crystal form B

[2] = Dynamic solubility at 37 °C (HPLC; residual solid by XRPD)
Experimental: Samples of the crystal form A and the crystal form B of ethoximod were taken and prepared into saturated solutions at 37 °C in Fasted State Simulated Intestinal Fluid (FaSSIF, pH = 8.0), Fed State Simulated Intestinal Fluid (FeSSIF, pH = 5.0), Simulated Gastric Fluid (SGF, pH = 1.0), a hydrochloric acid aqueous solution (pH = 1.0), an acetic acid-sodium acetate buffer system (pH = 4.0), a phosphate buffer system (pH = 6.8) and water. After 1 h/2 h/4 h/24 h, filtration was performed to obtain solutions, and actual concentrations of the samples in the solutions were measured through high-performance liquid chromatography (HPLC) (diluting the filtrates as needed). Crystal forms of the solids before and after the experiment were characterized through XRPD to check whether phase transition had occurred. Table 4 Comparison of solubility of crystal form A and crystal form B

[3] = Dynamic vapor sorption (hygroscopicity); settings: hydrochloride
Text: In the examples of the present application, the instrument used for the X-ray powder diffraction test is the D2 Phaser produced by Bruker. The instrument used for the differential scanning calorimetry test is the differential scanning calorimeter DSC 250 produced by TA Instruments. The instrument used for the thermogravimetric analysis is the thermogravimetric analyzer TGA 55 produced by TA Instruments. The instrument used for the FT-IR test is the Fourier infrared spectrometer ID1-summit produced by Thermo. The instrument used for the dynamic vapor sorption test is the DVS Intrinsic produced by Surface Measurement Systems (SMS). The instrument used for the microscopy is the microscope NJF-120A produced by Suzhou Nanguang Electronic Technology Co., Ltd.
Samples of the crystal form A and the crystal form B of ethoximod were taken for a dynamic vapor sorption test.

[4] = Mechanical stability: grinding, XRPD before and after; settings: ground with an agate mortar for 5 min; hydrochloride
Experimental: 50 mg crystal form A of ethoximod and 50 mg crystal form B of ethoximod were weighed and ground clockwise with an agate mortar for 5 min, and the samples before and after the grinding were subjected to an XRPD test.

[5] = Angle of repose test (flowability); settings: hydrochloride
Experimental: Powder properties of active pharmaceutical ingredients affect the flowability of the active pharmaceutical ingredients. The crystal form A and the crystal form B of ethoximod was subjected to angle of repose and Hausner ratio tests to compare the flowability of the crystal form A and the crystal form B of ethoximod. […] In this experiment, angles of repose of active pharmaceutical ingredients of the two crystal forms were measured through an injection method in combination with a residual cone method, and the flowability of the active pharmaceutical ingredients of the two crystal forms was analyzed. Specific operations are as follows: powders were injected into a center of a disc with a limited diameter, the injection was stopped until materials on an oblique side of a powder accumulation layer automatically flew out along an edge of the disc, a height (H) of a cone was measured, and the angle of repose was calculated according to the diameter (D = 2r) of the disc with tanQ = H/r.

[6] = Adhesion test in ziplock bag; settings: ziplock bag flipped at 5 rpm, 10 min in each direction; hydrochloride
Experimental: Each of the crystal form A and the crystal form B of ethoximod was taken and put into a ziplock bag with a fixed size. A seal was sealed, and the ziplock bag was flipped at a rotation speed of 5 rpm for 10 min. A direction was changed, and the ziplock bag continued to be flipped at a fixed rotation speed for 10 min. Raw materials were poured out from the bag, a mass of the remaining raw materials was weighed accurately, and an adhesion rate was calculated.

[7] = Compressibility: tableting evaluation; settings: tableting, punch die with a diameter of 6 mm; hydrochloride
Experimental: The crystal form A and the crystal form B of ethoximod were taken for preparation tableting evaluation. In this experiment, samples were subjected to tableting under the same pressure by using a punch die with a diameter of 6 mm, radial crushing forces F, diameters D and thicknesses L of the tablets were measured after the elastic recovery of the tablets, and the tensile strength of the tablets was calculated according to the following formula: tensile strength Ts = 2F/ΠDL.

[8] = Microscopic morphology and particle size; settings: optical microscope, 40× objective lens; hydrochloride
Text: Samples of the crystal form A and the crystal form B of ethoximod were subjected to microscopic morphological researches. The morphology and particle sizes of the crystal form A and the crystal form B were observed under a 40× objective lens of an optical microscope. The crystal form A is irregular and plate-shaped with a raw material particle size of below 35 µm and a long/short diameter ratio of 1 to 2. The crystal form B aggregates and becomes spherical with a raw material particle size of below 20 µm.

[9] = FaSSIF (pH = 8.0), 37 °C, 1 h, hydrochloride
[10] = FaSSIF (pH = 8.0), 37 °C, 2 h, hydrochloride
[11] = FaSSIF (pH = 8.0), 37 °C, 4 h, hydrochloride
[12] = FaSSIF (pH = 8.0), 37 °C, 24 h, hydrochloride

- change in main purity ([1]; 40 °C/75% RH, 60 °C and 92.5% RH for 30 days): no significant change
- time the crystal form is stable (XRPD) ([1]; 60 °C and light): at least 30 days
- Crystal Form after storage ([1]; At 40 °C/75% RH, hydrochloride): crystal form C
- main purity after storage ([1]; At 40 °C/75% RH, hydrochloride): 98.82 A%
- maximum single impurity after storage ([1]; At 40 °C/75% RH, hydrochloride): maximum single impurity: 0.34 A%
- Crystal Form after storage ([1]; At 60 °C, hydrochloride): crystal form B
- main purity after storage ([1]; At 60 °C, hydrochloride): 98.61 A%
- maximum single impurity after storage ([1]; At 60 °C, hydrochloride): maximum single impurity: 0.36 A%
- main purity after storage ([1]; At 92.5% RH, hydrochloride): 98.83 A%
- maximum single impurity after storage ([1]; At 92.5% RH, hydrochloride): maximum single impurity: 0.36 A%
- Crystal Form after storage ([1]; In light, hydrochloride): crystal form B
- main purity after storage ([1]; In light, hydrochloride): 91.81 A%
- maximum single impurity after storage ([1]; In light, hydrochloride): maximum single impurity: 1.57 A%
- main purity ([1]; before storage, hydrochloride): crystal form B main purity: 98.85 A%
- maximum single impurity ([1]; before storage, hydrochloride): maximum single impurity: 0.33 A%
- change in main purity ([1]; light for 30 days, hydrochloride): decreased to a certain extent
- crystal form of the solid [2, 9]: free alkali
- solubility [2, 9]: 15 µg/mL
- crystal form of the solid [2, 10]: free alkali
- solubility [2, 10]: 10 µg/mL
- crystal form of the solid [2, 11]: free alkali
- solubility [2, 11]: 8 µg/mL
- crystal form of the solid [2, 12]: free alkali
- solubility [2, 12]: 21 µg/mL
- solubility ([2]; FeSSIF (pH = 5.0), 37 °C, 1 h, hydrochloride): 1480 µg/mL
- solubility ([2]; FeSSIF (pH = 5.0), 37 °C, 2 h, hydrochloride): 1630 µg/mL
- solubility ([2]; FeSSIF (pH = 5.0), 37 °C, 4 h, hydrochloride): 1210 µg/mL
- solubility ([2]; FeSSIF (pH = 5.0), 37 °C, 24 h, hydrochloride): 1670 µg/mL
- solubility ([2]; SGF (pH = 1.0), 37 °C, 1 h, hydrochloride): 290 µg/mL
- solubility ([2]; SGF (pH = 1.0), 37 °C, 2 h, hydrochloride): 280 µg/mL
- solubility ([2]; SGF (pH = 1.0), 37 °C, 4 h, hydrochloride): 320 µg/mL
- solubility ([2]; SGF (pH = 1.0), 37 °C, 24 h, hydrochloride): 360 µg/mL
- solubility ([2]; acetic acid-sodium acetate buffer pH = 4.0, 37 °C, 1 h, hydrochloride): 1450 µg/mL
- solubility ([2]; acetic acid-sodium acetate buffer pH = 4.0, 37 °C, 2 h, hydrochloride): 1780 µg/mL
- solubility ([2]; acetic acid-sodium acetate buffer pH = 4.0, 37 °C, 4 h, hydrochloride): 1930 µg/mL
- solubility ([2]; acetic acid-sodium acetate buffer pH = 4.0, 37 °C, 24 h, hydrochloride): 2610 µg/mL
- solubility ([2]; hydrochloric acid aqueous solution pH = 1.0, 37 °C, 1 h, hydrochloride): 300 µg/mL
- solubility ([2]; hydrochloric acid aqueous solution pH = 1.0, 37 °C, 2 h, hydrochloride): 410 µg/mL
- solubility ([2]; hydrochloric acid aqueous solution pH = 1.0, 37 °C, 4 h, hydrochloride): 320 µg/mL
- solubility ([2]; hydrochloric acid aqueous solution pH = 1.0, 37 °C, 24 h, hydrochloride): 360 µg/mL
- crystal form of the solid ([2]; phosphate buffer pH = 6.8, 37 °C, 1 h): free alkali
- crystal form of the solid ([2]; phosphate buffer pH = 6.8, 37 °C, 2 h): free alkali
- solubility ([2]; phosphate buffer pH = 6.8, 37 °C, 2 h, hydrochloride): lower than limit of detection
- crystal form of the solid ([2]; phosphate buffer pH = 6.8, 37 °C, 4 h): free alkali
- solubility ([2]; phosphate buffer pH = 6.8, 37 °C, 4 h, hydrochloride): lower than limit of detection
- crystal form of the solid ([2]; phosphate buffer pH = 6.8, 37 °C, 24 h): free alkali
- solubility ([2]; phosphate buffer pH = 6.8, 37 °C, 24 h, hydrochloride): 1.9 µg/mL
- solubility at 1 h ([2]; phosphate buffer, 37 °C, pH 6.8, aqueous buffer, thermodynamic from solid, phosphate buffer pH = 6.8, 37 °C, 1 h): 0.1 µg/mL
- solubility ([2]; water, 37 °C, 1 h, hydrochloride): 1690 µg/mL
- solubility ([2]; water, 37 °C, 2 h, hydrochloride): 1650 µg/mL
- solubility ([2]; water, 37 °C, 4 h, hydrochloride): 2500 µg/mL
- solubility ([2]; water, 37 °C, 24 h, hydrochloride): 2160 µg/mL
- hygroscopic weight gain (vapor sorption) ([3]; 25 °C/90% RH): 4.6%
- Average of Angles of Repose [5]: 52.3 °
- Angle of Repose ([5]; single determination): 50.2 ° and 54.5 °
- Adhesion Amount Per Unit Area [6]: 0.001 g/m^2
- Weight of API Adsorbed in Bag [6]: 0.0735 g
- Experimental Phenomenon [7]: relatively severe sticking
- raw material particle size [8]: below 20 µm
Structure (SMILES): CCc1nc(-c2ccc(-c3ccc(CCC(N)(CO)CO)cc3)cc2)co1.Cl [crystal form B, 2-amino-2-{2-(4'-(2-ethyloxazol-4-yl)-[1,1'-biphenyl]-4-yl)ethyl}-1,3-propylene glycol hydrochloride]
- Crystal Form after storage ([1]; At 92.5% RH, hydrochloride): crystal transformed into the crystal form C
- crystal form after storage (XRPD) ([1]; placed for 5 days under 92.5% RH and 45 °C/75% RH): crystal transformed into the crystal form C
- hygroscopicity ([3]; DVS, 90% RH): with hygroscopicity; also recorded: has hygroscopicity
- crystal form after the dynamic vapor sorption test (XRPD) ([3]; after DVS test): crystal transformed into the crystal form C; also recorded: crystal transformed into a crystal form C
- crystal form after grinding (XRPD) [4]: partially crystal transformed into a crystal form C
